This passage reports MIC80 results from PMC12505902, “Inhibitors of trehalose-6-phosphate synthase activity in fungal pathogens compromise thermal tolerance pathways” (mBio, 2025).

Where two headings read alike, the source gives them in different places.

This experiment concerns C. albicans (SC5314). In words: MIC dose-response assay in YPD. It counts as cell-based. Here is the method: We tested the effects of 4456dh on live cells by determining the minimal inhibitory concentration causing 80% growth reduction (MIC80). […] The MIC80 increased at 30°C to greater than 13 mM (Fig. S7A).
Fig 4 4456dh inhibits the growth of Candida and Cryptococcus species. […] 4456dh was administered at the concentrations indicated. Cultures were grown in YPD at the listed temperatures for 48 hours for Candida species and 72 hours for Cryptococcus species. Experimental temperatures reflect the temperatures at which the fungi experience heat stress. Left: relative growth of treated samples was calculated by averaging technical triplicates and normalizing the OD600 of each treated well to the average OD600 of the untreated WT controls, after the absorbance due to the compound was subtracted. The MIC80 values, calculated based on the OD600 values, are indicated in the white text on each heat map. Right: representative spot assays show the ability of cells to grow after exposure to 4456dh and indicate fungicidal activity of 4456dh. […]
102 determined by identifying the inflection point of the derivative data.
103 Tps1 Enzyme Activity Assay
104 The catalytic activity of C. albicans Tps1 and C. neoformans Tps1 was measured via a continuous
105 enzyme- coupled assay as previously reported ( 4) . […]
110 bottomed 96-well microtiter plates and the decrease in absorbance at 340 nm during the initial
111 reaction rate was recorded using a plate reader (Tecan). The decrease in absorbance was
112 analyzed for the first 200s of the kinetic reaction. […]
116 the overnight cultures was quantified by measuring the OD600 and corrected for the background
117 absorbance of the medium. Antifungal potency for 4456dh was assessed by minimum inhibitory […]
124 technical replicates. Growth, as determined by a reading of absorbance at 600 nm, was
125 normalized to untreated controls and was corrected for the absorbance of 4456dh in the YPD […]
129 overnight cultures was quantified by measuring the OD600 and corrected for the background
130 absorbance of the medium. Antifungal potency for 4456dh was assessed by minimum inhibitory […]

In the case of `Cn1cc(-c2csc(NC(=O)Cc3ccccn3)n2)cn1` [Compound 4456dh], the MIC80 (usually the lowest concentration that inhibits either 80% of growth or 80% of the strains tested, depending on the study) is “no MIC was detected” (30°C, YPD); 13 mM (Candida albicans, SC5314, 42°C, YPD, 48 hours, read-out: MIC80); 5160 µg/mL (Candida albicans, SC5314, Supplemental Table 5, This publication, read-out: MIC80).
